# Assay results taken from PubChem BioAssay AID1996.
# Conditions: buffer; pH 7.4; 200.0 µM
row,SMILES,solubility kinetic [µg/mL]
1,O=S1(=O)CCN(OCc2ccc(F)cc2Cl)CC1,43.1
2,CCOc1ccc2nc(NC(=O)c3ccc(C)o3)sc2c1,0.6
3,FC(F)(F)c1cnc(COc2ccc(Cl)cc2Cl)c(Cl)c1,< 0.8
4,COc1ccc(NC(=O)Cc2ccc(Cl)c(Cl)c2)cn1,8.9
5,O=C(O)c1cc(=O)[nH]c2c(Cl)cccc12,> 33.5
6,OC(COc1ccc(Br)cc1)Cn1ccnc1 (stereo not given),36.3
7,O=C(O)CC(CC(=O)Nc1ccccc1C(=O)O)c1ccccc1 (stereo not given),> 49.1
8,O=C(Cc1ccc([N+](=O)[O-])cc1)Nc1ccc(Cl)cc1,4.5
9,O=C(CC1CCCC1)N1CCN(S(=O)(=O)c2ccccc2)CC1,> 50.5
10,Cl.Clc1cccc(CN2C3=NCCCN3c3ccccc32)c1,> 50.1
11,O=C(CSc1nc(C(F)(F)F)cc(=O)[nH]1)N1CCCC1,> 46.1
12,Cc1ccc2[nH]c(C)c(CCNC(=O)c3c(N)no[n+]3[O-])c2c1,5
13,CCC(C)NC(=O)c1ccc2c(Cl)c3c(nc2c1)CCC3 (stereo not given),9.9
14,CN(Cc1ccccc1)C(NC(=O)c1ccco1)C(Cl)(Cl)Cl (stereo not given),28.2
15,O=C(O)C1CCN(C(=O)Cc2ccccc2)CC1,> 37.1
16,COCC(=O)Nc1ccc(Br)c(C)c1,> 38.7
17,CCC(=O)Nc1cccc(C(=O)c2ccc(C)c(C)c2)c1,28
18,O=C(c1cccc(S(=O)(=O)N2CCN(c3ccc(F)cc3)CC2)c1)N1CCCC1,61.9
19,O=c1[nH]cnc2c1c(-c1ccccc1)cn2-c1cccc(Cl)c1,0.3
20,CCOC(=O)C1CCN(Cc2ccc(O)c3ncccc23)CC1,1.6

row,SMILES,solubility kinetic [µg/mL]
1,CN(C)C(CNC(=O)c1cccs1)c1ccco1 (stereo not given),> 39.7
2,Cc1ccc(S(=O)(=O)NCc2ccccc2C)cc1,20.4
3,CC(=O)c1c(C)[nH]c(C(=O)NCCc2c[nH]c3ccccc23)c1C,1.4
4,O=C(CSC1=NS(=O)(=O)c2ccccc2N1)Nc1ccccc1F,> 54.8
5,Cc1ccc(-c2c(C)n([O-])c3c([n+]2=O)CCCC3)cc1,> 40.5
6,COc1ccc(CCN=C(N)Nc2nc(C)cc(C)n2)cc1,36.5
7,O=C1OCc2ccc(NC(=O)C3CC3)cc21,> 32.6
8,Cc1c(C)n(CCCN(C)C)c2ncnc(NC3CCCCC3)c12,46.9
9,CCOC(=O)c1cc(C#N)c(SC)nc1C,0.9
10,Cc1nc(C)n(C)c(=O)c1-c1ccccc1,> 32.1
11,Cc1cc(NC(=O)CN2C(=O)NC(C)(CC(C)C)C2=O)no1 (stereo not given),> 46.3
12,Cc1cc2ncc(-c3ccccc3)nc2cc1C,< 0.3
13,Cc1ccc(S(=O)(=O)N(C)C)cc1NC(=O)CCc1ccccc1,49.9
14,CCOc1ccc(NC(=O)CCC(=O)c2ccc(OC)cc2)cc1,3
15,CS(=O)(=O)N1CCC(C(=O)NCc2ccccc2)CC1,> 44.5
16,C=CCn1c(SCC(=O)N2CCOCC2)nc2sc(CC)cc2c1=O,> 56.9
17,COC(=O)c1ccc(C[n+]2ccccc2)cc1.[Br-],> 46.2
18,CCOC(=O)C1CCCNC1=O (stereo not given),> 25.7
19,Br.COc1ccccc1N1CCN(CCCCN2C(=O)c3ccccc3C2=O)CC1,> 71.2
20,O=C1CSC(=Nc2cccc(Cl)c2Cl)N1,37.4

row,SMILES,solubility kinetic [µg/mL]
1,CC(C)N1CCN(Cc2ccncc2)CC1CCO (stereo not given),24.3
2,O=C(COC(=O)c1cncc(Br)c1)NCc1cccs1,40.6
3,CC1=C/C(=N\OS(=O)(=O)c2ccccc2)C=CC1=O,7.9
4,Nc1nc(Nc2ccccc2F)nc(NC2CCCCC2)c1[N+](=O)[O-],< 0.1
5,O=C(CSc1c[nH]c2ccccc12)NC1CCCC1,> 41.2
6,Cc1ccc(C(C)C)cc1S(=O)(=O)Nc1ccncc1,3.3
7,Cc1cccc(OCCN2C(=O)c3ccccc3C2=O)c1,4.6
8,CN(C(=O)CSC(=O)c1ccccc1)c1ccccc1,40.6
9,Cc1c(O)ccc(C(=O)CN2CCN(c3ccccc3F)CC2)c1O,13.7
10,O=S(=O)(NC1CC2CCC1C2)c1ccc(Br)cc1 (stereo not given),13.9
11,CCC1(C)CC(=O)N(c2ccc(F)c(Cl)c2)C(=O)C1,14
12,CCOC(=O)C1CCCN(CC(=O)Nc2nccs2)C1 (stereo not given),> 44.6
13,CCc1ccccc1NC(=O)N1CCc2ccccc21,6.1
14,Cn1c(SCC(=O)NCc2ccco2)nnc1C1CC1,> 43.9
15,COc1ccc(S(=O)(=O)N2CCCCC2)cc1NC(=O)COC(=O)c1ccco1,5.8
16,Cc1cc(NC(=O)CSc2nc3ccccc3cc2C#N)no1,2.9
17,Clc1ccc(/C=C/c2ncc[nH]2)c(Cl)c1,7.7
18,O=[N+]([O-])c1cccnc1SCc1c(F)cccc1Cl,< 0.3
19,O=[N+]([O-])c1cccc(S(=O)(=O)N2CN(c3ccc(Br)cc3)c3nc4ccccc4nc32)c1,1.6
20,Cc1ccc(OCC2Cn3c(nc4c3c(=O)[nH]c(=O)n4C)O2)cc1C (stereo not given),3.4
